Measured values from US10245332B2, “Contrast agents for applications including perfusion imaging” (Lantheus Medical Imaging, Inc., priority 2008, dated 2019).

What was measured:
[1] = Intravenous injection during microPET imaging in normal animals: heart rate, ECG, adverse effects; type: in vivo, rats, rabbits and nonhuman primates; settings: anesthetized animals
Description: (§1) Imaging was performed with a microPET camera (Focus220, MICROPET) in anesthetized rats, rabbits and nonhuman primates (NHP) following the intravenous administration of 1, 2 and 3 mCi of ^18F labeled 2-tert-butyl-4-chloro-5-[4-(2-fluoro-ethoxymethyl)-benzyloy]-2H-pyridazin-3-one, also referred to herein as Agent 2. After count acquisition, images were constructed and manually re-orientated as a series of tomographic views. […] These images were acquired 30 minutes post injection (mpi) of 5.1 mCi of 2-tert-butyl-4-chloro-5-[4-(2-[^18F]fluoro-ethoxymethyl)-benzyloy]-2H-pyridazin-3-one and were decay corrected.

[2] = microPET brain imaging in normal NHP (Example 13); type: in vivo, nonhuman primates (NHP); settings: 30 minutes post injection of 5.1 mCi
Description: as §1

[3] = microPET imaging of rat brain after intravenous injection; type: in vivo; settings: about 1 mCi intravenously
Description: After anesthesia, about 1 mCi of Agent 2 or Agent 3 was injected into a rat intravenously and the rat brain was imaged in a microPET scanner. Following the image acquisition, the images were reconstructed into tomographic views.

[4] = microPET imaging of NHP brain after intravenous injection; type: in vivo, nonhuman primates (NHP)
Description: Similarly, in nonhuman primates (NHP), about 3 mCi of Agent 1 or Agent 2 was injected intravenously and the brain of NHP was imaged in a microPET. […] The NHP brain was not visible when imaged with Agent 1.

tumor = assay: Tumor uptake measured in mouse tumor models after imaging; type: in vivo; settings: about 500 μCi intravenously
Description: Imaging studies using several mouse tumor models, including c-neu ONCO mice, nu/nu mice with OVCAR tumor, and nu/nu mice with HT1080 tumor, were conducted using contrast agents described herein. After administering anesthesia to the mouse, about 500 μCi of Agent 2 (from Table 1) were injected intravenously and the tumor was imaged in a microPET scanner. After imaging acquisition, images were reconstructed into tomographic views. […] In addition, tumor uptake of Agent 2 was measured in the mouse models after imaging. The uptake was detectable in a range from 1-4% injected dose per gram tissue.

Row | Compound | changes in heart rate and ECG waveforms [1] | survival and adverse effects during image acquisition period [1] | transport into the brain (uptake and resolution of the images) [2] | passing the blood brain barrier and accumulating in the brain [3] | passing through blood brain barrier and accumulating in the brain ([4]; NHP, about 3 mCi intravenously) | visibility of NHP brain in microPET images ([4]; NHP, about 3 mCi intravenously) | tumor uptake (tumor) | penetration into the brain, relative to Agent 2 ([4]; SAR study of Example 14)
1 | CC(C)(C)n1ncc(OCc2ccc(COCC[18F])cc2)c(Cl)c1=O [Agent 2, 2-tert-Butyl-4-chloro-5-[4-(2-(^18F)fluoroethoxymethyl)-benzyloxy]-2H-pyridazin-3-one] | did not induce changes in heart rate and ECG waveforms | all animals survived the image acquisition period with no adverse effects | efficiently transported into the brain | capable of passing the blood brain barrier and accumulating in the brain | capable of passing through blood brain barrier and accumulating in the brain | visible | 1-4 % injected dose per gram tissue | 
2 | CC(C)(C)n1ncc(OCc2ccc(OCCC[18F])cc2)c(Cl)c1=O [Agent 3, 2-tert-Butyl-4-chloro-5-[4-(3-(^18F)fluoropropoxy)-benzyloxy]-2H-pyridazin-3-one] |  |  |  | unlike Agent 3, Agent 2 is capable of passing the blood brain barrier |  |  |  | 
3 | CC(C)(C)n1ncc(OCc2ccc(CCCC[18F])cc2)c(Cl)c1=O [Agent 1, 2-tert-butyl-4-chloro-5-[4-(4-[^18F]fluoro-butyl)-benzyloxy]-2H-pyridazin-3-one] |  |  |  |  |  | not visible |  | decreased penetration into the brain
